# Results taken from ChEMBL document CHEMBL5576061, “The role of the methoxy group in approved drugs” (Eur J Med Chem, 2024).
# Test system: Human immunodeficiency virus 1
# Assay: Antiviral activity against HIV-1 3B infected in human MT4 cells assessed as reduction in virus-induced cytopathic effect incubated for 4 days by MTT assay
# Assay type: functional, organism-based
# Details: Human immunodeficiency virus 1, 3B, MT4, 96 h
row,Structure (SMILES),EC50 [nM]
1,CNC(=O)c1ccc(OC)c2c(C(=O)C(=O)N3CCN(C(=O)c4ccccc4)CC3)c[nH]c12,0.76
2,CNC(=O)c1ncc(OC)c2c(C(=O)C(=O)N3CCN(C(=O)c4ccccc4)CC3)c[nH]c12,0.28

# Molecular target: T1, Non-receptor tyrosine-protein kinase TYK2 (Homo sapiens, UniProt P29597)
# T1 sequence (P29597 whole entry, the tested form may be a part): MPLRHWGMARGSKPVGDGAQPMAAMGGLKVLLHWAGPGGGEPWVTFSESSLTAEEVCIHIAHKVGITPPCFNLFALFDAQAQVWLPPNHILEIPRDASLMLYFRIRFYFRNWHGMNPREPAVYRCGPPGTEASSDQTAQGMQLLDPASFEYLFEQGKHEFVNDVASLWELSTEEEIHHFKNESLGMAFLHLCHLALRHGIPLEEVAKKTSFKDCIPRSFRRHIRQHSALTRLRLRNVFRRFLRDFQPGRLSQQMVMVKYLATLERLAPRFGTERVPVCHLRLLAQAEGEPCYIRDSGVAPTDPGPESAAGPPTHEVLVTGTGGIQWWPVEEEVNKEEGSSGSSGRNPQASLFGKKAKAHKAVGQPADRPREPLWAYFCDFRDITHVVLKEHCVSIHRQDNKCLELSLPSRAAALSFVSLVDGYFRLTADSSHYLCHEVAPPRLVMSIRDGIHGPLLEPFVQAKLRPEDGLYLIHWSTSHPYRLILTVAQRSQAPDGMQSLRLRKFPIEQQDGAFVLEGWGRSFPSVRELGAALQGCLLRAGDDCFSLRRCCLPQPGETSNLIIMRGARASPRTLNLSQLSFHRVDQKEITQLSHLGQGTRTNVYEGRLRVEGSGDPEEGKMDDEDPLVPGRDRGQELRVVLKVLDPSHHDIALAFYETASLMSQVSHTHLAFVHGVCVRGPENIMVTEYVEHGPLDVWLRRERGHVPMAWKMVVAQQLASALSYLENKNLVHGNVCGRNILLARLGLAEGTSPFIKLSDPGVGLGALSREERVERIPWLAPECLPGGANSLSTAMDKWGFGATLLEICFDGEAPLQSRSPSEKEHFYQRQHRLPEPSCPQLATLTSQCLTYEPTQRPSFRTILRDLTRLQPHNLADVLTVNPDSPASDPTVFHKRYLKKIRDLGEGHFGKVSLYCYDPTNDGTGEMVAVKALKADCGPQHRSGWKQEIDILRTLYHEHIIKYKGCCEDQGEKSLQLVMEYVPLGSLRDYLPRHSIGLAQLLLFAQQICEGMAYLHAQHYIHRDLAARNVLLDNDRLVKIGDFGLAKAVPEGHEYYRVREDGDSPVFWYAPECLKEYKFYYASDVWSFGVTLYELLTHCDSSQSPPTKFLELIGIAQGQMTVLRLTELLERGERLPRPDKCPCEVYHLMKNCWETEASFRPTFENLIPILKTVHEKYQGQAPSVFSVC
# Assay: Inhibition of TYK2 (unknown origin) (575 to 869 residues) by HTRF assay
# Details: not given
row,Structure (SMILES),IC50 [nM]
1,CNC(=O)c1cnc(Nc2ccc(F)cn2)cc1Nc1cccc(C(=O)NC)c1OC,0.6
2,CNC(=O)c1cccc(Nc2cc(Nc3ccc(F)cn3)ncc2C(=O)NC)c1,44

# Molecular target: T1, Non-receptor tyrosine-protein kinase TYK2
# Assay: Inhibition of TYK2 (unknown origin)
# Details: not given
row,Structure (SMILES),IC50 [nM]
1,CNC(=O)c1cnc(NC(=O)C2CC2)cc1Nc1cccc(-c2ncn(C)n2)c1OC,0.7
2,CNC(=O)c1cnc(Nc2cc(C)c(F)cn2)cc1Nc1cccc(-c2ncn(C)n2)c1OC,0.4
3,[2H]C([2H])([2H])NC(=O)c1cnc(NC(=O)C2CC2)cc1Nc1cccc(-c2ncn(C)n2)c1OC,0.3

# Test system: Human immunodeficiency virus 1
# Assay: Antiviral activity against HIV-1 infected in human MT4 cells assessed as inhibition of viral growth
# Assay type: functional, organism-based
# Details: Human immunodeficiency virus 1, MT4
row,Structure (SMILES),EC50 [nM]
1,O=C(O)c1c[nH]c2ccc(Cc3cccc(Cl)c3F)cc2c1=O,805
2,O=C(O)c1cn(CCO)c2ccc(Cc3cccc(Cl)c3F)cc2c1=O,76.3
3,O=C(O)c1cnc2ccc(Cc3ccccc3)cc2c1O,> 30000

# Molecular target: not listed separately
# Assay: Inhibition of tyrosine kinase (unknown origin)
# Design: species or system Homo sapiens
# Details: not given
row,Structure (SMILES),IC50 [nM]
1,COc1cc(Nc2c(C#N)cnc3cc(OC)c(OC)cc23)c(Cl)cc1Cl,4.3
2,COc1cc2ncc(C#N)c(Nc3ccc(Cl)cc3Cl)c2cc1OC,30
3,COc1cc(Nc2c(C#N)cnc3cc(OCCCN4CCOCC4)c(OC)cc23)c(Cl)cc1Cl,0.8
4,COc1ccc2ncc(C#N)c(Nc3ccc(Cl)cc3Cl)c2c1,320
5,COc1ccc2c(Nc3ccc(Cl)cc3Cl)c(C#N)cnc2c1,200
6,COc1cc2ncc(C#N)c(Nc3cc(O)c(Cl)cc3Cl)c2cc1OC,190
7,CCOc1cc(Nc2c(C#N)cnc3cc(OC)c(OC)cc23)c(Cl)cc1Cl,1200
8,N#Cc1cnc2cc(O)c(O)cc2c1Nc1ccc(Cl)cc1Cl,> 1000
9,N#Cc1cnc2ccccc2c1Nc1ccc(Cl)cc1Cl,> 1000
10,COc1cc(Nc2c(C#N)cnc3cc(OCCCN4CCN(C)CC4)c(OC)cc23)c(Cl)cc1Cl [BOSUTINIB],1.2

# Test system: Human immunodeficiency virus 1
# Assay: Antiviral activity against HIV-1 HTLV-IIIB infected in human MT4 cells assessed as reduction in virus induced cytopathic effect by immunofluorescence assay
# Assay type: functional, organism-based
# Details: Human immunodeficiency virus 1, MT4
row,Structure (SMILES),EC50 [nM]
1,C=C[C@@H]1C[C@]1(NC(=O)[C@@H]1C[C@@H](Oc2ncc(OC)c3ccc(Cl)cc23)CN1C(=O)[C@@H](NC(=O)OC(C)(C)C)C(C)(C)C)C(=O)NS(=O)(=O)C1CC1,6
2,C=C[C@@H]1C[C@]1(NC(=O)[C@@H]1C[C@@H](Oc2ncc(OC)c3ccccc23)CN1C(=O)[C@@H](NC(=O)OC(C)(C)C)C(C)(C)C)C(=O)NS(=O)(=O)C1CC1,19
3,C=C[C@@H]1C[C@]1(NC(=O)[C@@H]1C[C@@H](Oc2nccc3ccccc23)CN1C(=O)[C@@H](NC(=O)OC(C)(C)C)C(C)(C)C)C(=O)NS(=O)(=O)C1CC1,60
4,C=C[C@@H]1C[C@]1(NC(=O)[C@@H]1C[C@@H](Oc2nccc3ccc(Cl)cc23)CN1C(=O)[C@@H](NC(=O)OC(C)(C)C)C(C)(C)C)C(=O)NS(=O)(=O)C1CC1,20

# Test system: Hepatitis C virus
# Assay: Antiviral activity against Hepatitis C virus genotype 1b infected in human Huh-7 cells assessed as reduction in viral infection
# Assay type: functional, organism-based, Hepacivirus hominis
# Details: not given
row,Structure (SMILES),EC50 [nM]
1,COc1ccc2c(c1)[C@@H]1C[C@]1(C(=O)N1C[C@@H](C)O[C@@H](C)C1)Cn1c-2c(C2CCCCC2)c2ccc(C(=O)NS(=O)(=O)N(C)C)cc21,24

# Molecular target: Human immunodeficiency virus type 1 integrase (Human immunodeficiency virus 1, UniProt Q7ZJM1)
# Sequence (Q7ZJM1 whole entry): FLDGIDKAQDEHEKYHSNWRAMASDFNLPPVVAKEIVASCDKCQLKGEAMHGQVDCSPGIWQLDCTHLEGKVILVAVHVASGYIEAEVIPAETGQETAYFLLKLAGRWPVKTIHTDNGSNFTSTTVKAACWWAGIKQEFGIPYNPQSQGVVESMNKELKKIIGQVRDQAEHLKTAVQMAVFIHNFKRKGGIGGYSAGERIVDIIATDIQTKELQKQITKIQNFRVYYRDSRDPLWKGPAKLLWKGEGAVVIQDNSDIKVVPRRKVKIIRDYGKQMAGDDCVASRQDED
# Assay: Inhibition of HIV-1 integrase
# Details: not given
row,Structure (SMILES),IC50 [nM]
1,C=C[C@@H]1C[C@]1(NC(=O)[C@@H]1C[C@@H](Oc2ncc(OC)c3ccccc23)CN1C(=O)[C@@H](NC(=O)OC(C)(C)C)C(C)(C)C)C(=O)NS(=O)(=O)C1CC1,2
2,C=C[C@@H]1C[C@]1(NC(=O)[C@@H]1C[C@@H](Oc2nccc3ccccc23)CN1C(=O)[C@@H](NC(=O)OC(C)(C)C)C(C)(C)C)C(=O)NS(=O)(=O)C1CC1,7
3,C=C[C@@H]1C[C@]1(NC(=O)[C@@H]1C[C@@H](Oc2nccc3ccc(Cl)cc23)CN1C(=O)[C@@H](NC(=O)OC(C)(C)C)C(C)(C)C)C(=O)NS(=O)(=O)C1CC1,12

# Test system: Hepatitis C virus
# Assay: Antiviral activity against Hepatitis C virus genotype 1a infected in human Huh-7 cells assessed as reduction in viral infection
# Assay type: functional, organism-based, Hepacivirus hominis
# Details: not given
row,Structure (SMILES),EC50 [nM]
1,COc1ccc2c(c1)[C@@H]1C[C@]1(C(=O)N1C[C@@H](C)O[C@@H](C)C1)Cn1c-2c(C2CCCCC2)c2ccc(C(=O)NS(=O)(=O)N(C)C)cc21,12
